Results published in PubChem BioAssay AID200 (DTP/NCI, 2004).
Values joined by “and” are separate entries in the source; they are usually repeats but may differ in a detail not shown here. Equal entries are not always repeated. Toxic doses and inconclusive results are not listed.

Tested on: B6C3F1 mice, B16 melanoma ip, median survival T/C
Assay: NCI In Vivo Anticancer Drug Screen. Data for tumor model B16 Melanoma (intraperitoneal) in B6C3F1 mice
Conditions: endpoint: median survival time, schedule: Q01DX009 (ip), higher = longer survival
Procedure, shortened: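 Readout: survival or tumor size in treated mice relative to vehicle controls (T/C). Model uses transplantable tumors grown in mice.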

[1] = dose: 25.0 mg/kg/injection, vehicle: Klucel (hydroxypropylcellulose) (HPC)
[2] = dose: 50.0 mg/kg/injection, vehicle: Klucel (hydroxypropylcellulose) (HPC)
[3] = dose: 100.0 mg/kg/injection, vehicle: Klucel (hydroxypropylcellulose) (HPC)

Q: How did the T/C (dose: 0.75 mg/kg/injection, vehicle: water) turn out when `CC[C@](O)(C(=O)O)c1cc2n(c(=O)c1CO)Cc1cc3ccccc3nc1-2` was run?
A: 117 % of control

Q: And the T/C (dose: 1.5 mg/kg/injection, vehicle: water)?
A: 154 % of control

Q: And the T/C (dose: 3.0 mg/kg/injection, vehicle: water)?
A: 169 % of control

Q: Which results are given for `NC(CNc1ccc(O)cc1)C(=O)O` (configuration not stated)?
A: T/C (dose: 75.0 mg/kg/injection, vehicle: saline): 111 % of control; T/C (dose: 100.0 mg/kg/injection, vehicle: saline): 103 % of control; T/C (dose: 150.0 mg/kg/injection, vehicle: saline): 101 % of control

Q: Which T/C (dose: 1.25 mg/kg/injection, vehicle: Klucel (hydroxypropylcellulose) (HPC)) does the source give for `COc1c(O)cc2c(c1OC)-c1ccc(SC)c(=O)cc1C(NC(C)=O)CC2` (configuration not stated) here?
A: 160 % of control

Q: And the T/C (dose: 1.8 mg/kg/injection, vehicle: Klucel (hydroxypropylcellulose) (HPC))?
A: 180 % of control and 182 % of control and 186 % of control

Q: What about the T/C (dose: 2.5 mg/kg/injection, vehicle: Klucel (hydroxypropylcellulose) (HPC)) of the same molecule?
A: 156 % of control and 167 % of control

Q: What about the T/C (dose: 3.0 mg/kg/injection, vehicle: Klucel (hydroxypropylcellulose) (HPC)) of the same molecule?
A: 178 % of control and 184 % of control and 198 % of control

Q: What about the T/C (dose: 10.0 mg/kg/injection, vehicle: Klucel (hydroxypropylcellulose) (HPC)) of the same molecule?
A: 180 % of control

Q: How did the T/C [1] turn out when `COc1cc2c(c3c1c(=O)c1cccc(F)c1n3C)C=CC(C)(C)O2` was run?
A: 109 % of control

Q: And the T/C [2]?
A: 119 % of control

Q: And the T/C [3]?
A: 88 % of control

Q: `O=C1C=C(N2CC2)C(=O)C(N2CC2)=C1N1CC1` was tested. Which T/C (dose: 6.25 micrograms/kg/injection, vehicle: saline) did it give?
A: 111 % of control

Q: And the T/C (dose: 12.5 micrograms/kg/injection, vehicle: saline)?
A: 95 % of control

Q: And the T/C (dose: 25.0 micrograms/kg/injection, vehicle: saline)?
A: 113 % of control

Q: What about the T/C (dose: 50.0 micrograms/kg/injection, vehicle: saline) of the same molecule?
A: 165 % of control

Q: What about the T/C (dose: 100.0 micrograms/kg/injection, vehicle: saline) of the same molecule?
A: 157 % of control

Q: What does the source list for `CC(/C=C/C1OC(=O)C=CC1C)=C\C(C)C/C=C/C(C)=C/C(C)C(=O)C(C)C(O)C(C)C/C(C)=C/C(=O)O` (configuration not stated)?
A: T/C (dose: 12.5 micrograms/kg/injection, vehicle: saline + alcohol): 170 % of control and 184 % of control; T/C (dose: 25.0 micrograms/kg/injection, vehicle: saline + alcohol): 176 % of control and 224 % of control

Q: For `C=C(NC(=O)C(=C)NC(=O)c1csc(C2=NC3c4csc(n4)C4NC(=O)c5csc(n5)C(C(C)(O)C(C)O)NC(=O)C5CSC(=N5)/C(=C/C)NC(=O)C(C(C)O)NC(=O)c5csc(n5)C3(CC2)NC(=O)C(C)NC(=O)C(=C)NC(=O)C(C)NC(=O)C(C(C)CC)NC2C=Cc3c(C(C)O)cc(nc3C2O)C(=O)OC4C)n1)C(N)=O` (configuration not stated), which T/C (dose: 12.5 mg/kg/injection, vehicle: Klucel (hydroxypropylcellulose) (HPC)) is on record?
A: 116 % of control

Q: What about the T/C [1] of the same molecule?
A: 104 % of control

Q: What about the T/C [2] of the same molecule?
A: 105 % of control

Q: And the T/C [3]?
A: 107 % of control

Q: What about the T/C (dose: 200.0 mg/kg/injection, vehicle: Klucel (hydroxypropylcellulose) (HPC)) of the same molecule?
A: 96 % of control

Q: What about the T/C (dose: 400.0 mg/kg/injection, vehicle: Klucel (hydroxypropylcellulose) (HPC)) of the same molecule?
A: 99 % of control

Q: Which results are given for `C/C=C1/C(=O)O[C@]23C=C[C@@H]4C(C(=O)OC)=CO[C@H](O[C@@H]12)[C@@H]43`?
A: T/C (dose: 3.75 mg/kg/injection, vehicle: Klucel (hydroxypropylcellulose) (HPC)): 102 % of control; T/C (dose: 7.5 mg/kg/injection, vehicle: Klucel (hydroxypropylcellulose) (HPC)): 91 % of control; T/C (dose: 15.0 mg/kg/injection, vehicle: Klucel (hydroxypropylcellulose) (HPC)): 98 % of control

Q: Which T/C (dose: 12.5 mg/kg/injection, vehicle: saline with Tween-80) does the source give for `COC(=O)c1ccc(O)cc1` here?
A: 92 % of control

Q: And the T/C (dose: 25.0 mg/kg/injection, vehicle: saline with Tween-80)?
A: 103 % of control

Q: What about the T/C (dose: 50.0 mg/kg/injection, vehicle: saline with Tween-80) of the same molecule?
A: 106 % of control

Q: What about the T/C (dose: 100.0 mg/kg/injection, vehicle: saline with Tween-80) of the same molecule?
A: 117 % of control

Q: What about the T/C (dose: 200.0 mg/kg/injection, vehicle: saline with Tween-80) of the same molecule?
A: 101 % of control

Q: And the T/C (dose: 400.0 mg/kg/injection, vehicle: saline with Tween-80)?
A: 96 % of control

Q: With `CN(C)CCN1C(=O)c2cccc3cc([N+](=O)[O-])cc(c23)C1=O` as the molecule, how does the T/C (dose: 0.37 mg/kg/injection, vehicle: saline with Tween-80) read?
A: 105 % of control

Q: What about the T/C (dose: 0.75 mg/kg/injection, vehicle: saline with Tween-80) of the same molecule?
A: 107 % of control

Q: What about the T/C (dose: 1.5 mg/kg/injection, vehicle: saline with Tween-80) of the same molecule?
A: 112 % of control

Q: And the T/C (dose: 1.56 mg/kg/injection, vehicle: saline with Tween-80)?
A: 117 % of control

Q: And the T/C (dose: 3.0 mg/kg/injection, vehicle: saline with Tween-80)?
A: 102 % of control

Q: And the T/C (dose: 12.0 mg/kg/injection, vehicle: saline with Tween-80)?
A: 88 % of control
